Molecules are shown by their SMILES.

We go through 2 compounds from US20230202997A1, “CHROMANOL, QUINONE OR HYDROQUINONE COMPOUNDS FOR TREATMENT OF SEPSIS” (Sulfateq B.V., priority 2020, published 2023).

For assay [1], the system named is mitochondrial oxidative stress in HUVEC. As to the kind of experiment: LPS-induced mitochondrial superoxide in HUVEC (MitoSox). Format: cell-based, Human. The note with it: 10 μM for 30 min, LPS 100 ng/ml 24 hours. The procedure:
(§1) Human Umbilical Cord Endothelial Cells (HUVEC, Lonza CC-2519) were maintained on 1% gelatin-coated culture flasks in RPMI1640 medium containing 20% fetal bovine serum, 2 mM Glutamine (Sigma-Aldrich), 1% Penicillin-Streptomycin solution (Sigma-Aldrich) and 50 μg/ml Bovine Pituitary Extract (Invitrogen). HUVEC were passaged by trypsinization when the cultures reach a confluency of 70%. For all experiments, HUVEC were seeded at 0.6·10^5 cells/cm^2 and allowed to adhere for 24 hours.
(§2) The production of cellular and mitochondrial oxidative stress was measured using fluorescent probes for cellular and mitochondrial superoxide, i.e. dihydroethidium (DHE) and MitoSox (ThermoFisher), respectively. HUVEC were incubated with BN-80933, SUL-138 or SUL-150 (all 10 μM) for 30 min. Next, HUVEC were exposed to LPS (100 ng/ml) for an additional 24 hours. In the final hour of incubation, 2.5 μM of DHE or MitoSox was applied to each sample. HUVEC were washed in PBS and fixed in 4% paraformaldehyde at room temperature for 15 min. Nuclear staining was performed by 5 μM […] (DAPI) and fluorescence intensity of the samples was recorded in a CLARIOStar Plus plate reader (BMG Labtech) equipped with the appropriate filter sets. Fluorescence recordings for DHE and MitoSox were corrected for DAPI fluorescence. All experiments were performed in quadruplicate.

In assay [2] the test system is HUVEC. The assay is described as follows: Cell viability after hypothermia-rewarming stress (Neutral Red). Format: cell-based, Human. The settings on record: 10 μM for 1 hour, 4° C. for 24 hours followed by 37° C. for 3 hours. The procedure:
as §1
HUVEC were pre-treated with BN-80933, SUL-138 or SUL-150 (all 10 μM) for 1 hour in a humidified incubator at 37° C. Following pre-treatment, HUVEC were placed in a cold room (2-8° C.) for 24 hours and subsequently placed back at 37° C. for a 3 hour rewarming period. After 1 hour of rewarming, cell culture medium was replaced by prewarmed and filtered 0.4 mg/mL Neutral Red (#N463 8, Sigma-Aldrich) in culture medium. After the remaining 2 hour rewarming period, HUVEC were washed with PBS and NRU was solubilized in 100 μL resorption solution (50% ethanol, 1% ascetic acid in dH2O). The absorbance was measured at a wavelength of 550 nm on a BioTek ELx808 plate reader. The recorded OD550 nm values were normalized to control samples that were maintained at 37° C. at all times, which were assumed to be 100% viable.

Assay [3] relates to TNFα mRNA expression. As to the kind of experiment: Endothelial inflammatory activation after endotoxin, TNFα mRNA (Example 5). The assay is classed as cell-based, Human. The settings on record: HUVEC; 10 μM for 30 min. As to the method:
as §1
(§3) HUVEC cells were lysed in triZOL reagens (Invitrogen) and total RNA isolated according to manufacturers' instruction. 1 μg total RNA per sample was reverse transcribed using the FirstAid Reverse Transcription Kit (ThermoFisher). Copy-DNA equivalents of 5 ng total RNA were amplified on a ViiA7 Real-time PCR system (ThermoFisher, Waltham, Mass.) using iTaq Universal SYBR Green Supermix (Bio-Rad, Hercules, Calif.) and primers specific for tumor necrosis factor alpha (TNFα; sense 5′-[…]-3′, antisense 5′-[…]-3′), interleukin 1 beta (IL-1β; sense 5′-[…]-3′, antisense 5′-[…]-3′), interleukin-6 (IL-6; sense 5′-[…]-3′, antisense 5′-[…]-3′) and beta actin (ACTB; sense 5′-[…]-3′, antisense 5′-[…]-3′) as loading control. Amplification was performed for 40 cycles of 95° C. for 30 s, 60° C. for 1 min. Relative mRNA expression was calculated according to the δδCt-method.

In assay [4] the test system is IL-6 mRNA expression. The assay is described as follows: Endothelial inflammatory activation after endotoxin, IL-6 mRNA (Example 5). The assay is classed as cell-based, Human. The settings on record: HUVEC; 10 μM for 30 min. As to the method: as §1, §3
The subject of assay [5] is TNFα mRNA expression. The assay is described as follows: Inhibition of LPS-induced TNFα mRNA expression in HUVEC. Format: cell-based, Human. The settings on record: 10 μM for 30 min, then LPS 24 hours. As to the method:
as §1
(§4) HUVEC and NRK52E cells were pre-incubated with SUL compounds (10 μM) for 30 min and subsequently exposed to LPS for 24 hours under standard culture conditions. Cells were lysed in triZOL reagens (Invitrogen) and total RNA isolated according to manufacturers' instruction. 1 μg total RNA per sample was reverse transcribed using the FirstAid Reverse Transcription Kit (ThermoFisher). Copy-DNA equivalents of 5 ng total RNA were amplified on a ViiA7 Real-time PCR system (ThermoFisher, Waltham, Mass.) using iTaq Universal SYBR Green Supermix (Bio-Rad, Hercules, Calif.) and primers specific for tumor necrosis factor alpha, interleukin 1 beta, interleukin-6 and beta actin as loading control. Amplification was performed for 40 cycles of 95° C. for 30 s, 60° C. for 1 min. Relative mRNA expression was calculated as 2^−(Cq^gene^−Cq^reference^) and normalized to unstimulated control cells (100% inhibition) and vehicle-treated and LPS exposed cells (0% inhibition). The following primers were used: […]

Assay [6] deals with NO production in RAW264.7 macrophages. As to the kind of experiment: Macrophage NO production (nitrate in conditioned medium), basal and after LPS. Format: cell-based, Mouse. As to the method:
Mouse macrophage RAW264.7 cells (ATCC #TIB-71) were maintained in DMEM medium containing 10% fetal bovine serum, and 1% Penicillin-Streptomycin solution (Sigma-Aldrich). […] For all experiments, RAW264.7 cells were seeded at 0.5·10^5 cells/cm^2 and allowed to adhere for 24 hours. Cellular production of NO was approximated by measuring nitrate concentrations in culture media using the Measure-IT™ High-Sensitivity Nitrite Assay Kit (#M36051, ThermoFisher) according to manufacturer's instructions. […] Therefore, nitrate concentrations in conditioned media are a good approximate to assess cellular NO production. 50 μl conditioned medium derived from a single 96-wells plate well was used per assay and normalized against protein concentration. All experiments were performed in quadruplicate. LPS induces macrophage NO production by activating iNOS. RAW264.7 macrophages were pre-treated with vehicle (DMSO), BN-80933, SUL-138, or SUL-150 or (all 10 μM) prior to endotoxin (LPS 100 ng/ml) exposure for 24 hours. The nitrate levels in the conditioned medium from LPS exposed RAW264.7 macrophages averaged at 83 pmol/mg protein (˜16-fold increase versus non-exposed RAW264.7 cells, p=0.001).

Assay [7] relates to cytoplasmic oxidative stress in HUVEC. The assay is described as follows: LPS-induced cellular superoxide in HUVEC (DHE). The assay is classed as cell-based, Human. The note with it: 10 μM for 30 min, LPS 100 ng/ml 24 hours. The procedure:
as §1, §2

The test system of assay [8] is IL-6 mRNA expression. As to the kind of experiment: Inhibition of LPS-induced IL-6 mRNA expression in HUVEC. The assay is classed as cell-based, Human. The settings on record: 10 μM for 30 min, then LPS 24 hours. As to the method: as §1, §4
Assay [9] has as its system NO production in HUVEC. As to the kind of experiment: Endothelial NO production (nitrate in conditioned medium), basal and after LPS. The assay is classed as cell-based, Human. The settings on record: 10 μM pre-treatment, LPS 100 ng/ml for 24 hours. As to the method:
as §1
Cellular production of NO was approximated by measuring nitrate concentrations in culture media using the Measure-IT™ High-Sensitivity Nitrite Assay Kit (#M36051, ThermoFisher) according to manufacturer's instructions. […] Therefore, nitrate concentrations in conditioned media are a good approximate to assess cellular NO production. 50 μl conditioned medium derived from a single 96-wells plate well was used per assay and normalized against protein concentration. All experiments were performed in quadruplicate.
Endotoxins suppress endothelial NO production by limiting the activity of eNOS. HUVEC were pre-treated with vehicle (DMSO), BN-80933, SUL-138, or SUL-150 or (all 10 μM) prior to endotoxin (LPS 100 ng/ml) exposure for 24 hours. The nitrate levels in the conditioned medium from endothelial cells exposed to LPS averaged at 160 pmol/mg protein (˜33% reduction versus non LPS exposed HUVEC, p=0.002), which was lower than basal control levels. BN-80933 further suppressed the nitrate levels in the conditioned medium (FIG. 7A) to an average of 90 pmol/mg protein (p=0.008).

Assay [10] has as its system IL-1β mRNA expression. The assay is described as follows: Inhibition of LPS-induced IL-1β mRNA expression in HUVEC. Format: cell-based, Human. The settings on record: 10 μM for 30 min, then LPS 24 hours. As to the method: as §1, §4
Assay [11] has as its system IL-1β mRNA expression. The assay is described as follows: Endothelial inflammatory activation after endotoxin, IL-1β mRNA (Example 5). The settings on record: HUVEC; 10 μM for 30 min. The assay is classed as cell-based, Human. The procedure: as §1, §3
The subject of assay [12] is sepsis induction in Drosophila melanogaster (Staphylococcus aureus). The assay is described as follows: S. aureus sepsis in flies, survival and negative geotaxis. The assay is classed as in vivo. The settings on record: flies with S. aureus sepsis. As to the method:
W1118 flies were bred and housed at 25° C. with a 12 h:12 h light/dark-cycle. Flies were kept in vials containing approximately 5 mL of standard yeast-cornmeal medium. Flies kept as a stock were flipped to fresh vials weekly. The used yeast-cornmeal medium was prepared to the instructions of Stocker and Gallant's ‘Drosophila Methods and Protocols’ and consisted of 100 grams yeast, 75 grams glucose, 8 grams agar, 55 grams cornmeal, and 10 grams wheat flour per litre of water. After boiling, phosphoric acid and propionic acid were added to the mixture to prevent fungal growth.
Staphylococcus aureus (S. aureus) was aerobically cultured overnight in 2.5% tryptic soy broth (TSB) at 37° C. with continuous rotation (200 rounds per minute), from an S. aureus glycerol stock kept at −80° C. For each experiment, a fresh culture was prepared one day prior to the experiment. For bacterial infection, optical density (OD) was measured the following day at 600 nm. Clean TSB was used as OD=0.00 and the bacterial culture was diluted to OD=2.20 with PBS. Next, 1.0 mL of the bacterial culture (OD=2.20) was centrifuged at 14,000 g for 1 minute, the supernatant was discarded, and the bacterial pellet resuspended in 1.0 mL PBS. Serial dilutions (5× and 25× diluted in PBS with optical densities of approximately 1.05 and 0.25, respectively) were used in the appropriate experiments. […]

Assay [13] concerns IL-6 mRNA expression. As to the kind of experiment: Inhibition of LPS-induced IL-6 mRNA expression in NRK52E. The note with it: 10 μM for 30 min, then LPS 24 hours. The assay is classed as cell-based, Rat. The procedure:
(§5) Rat kidney epithelial cells (ATCC #CRL-1571) were maintained in DMEM medium containing 10% fetal bovine serum, and 1% Penicillin-Streptomycin solution (Sigma-Aldrich). NRK52E cells were passaged by trypsinization when the cultures reached a confluency of 70%. For all experiments, NRK52E cells were seeded at 0.6·10^5 cells/cm^2 and allowed to adhere for 24 hours.
as §4

Assay [14] concerns TNFα mRNA expression. The assay is described as follows: Inhibition of LPS-induced TNFα mRNA expression in NRK52E. The settings on record: 10 μM for 30 min, then LPS 24 hours. Format: cell-based, Rat. As to the method: as §5, §4

Take `Cc1c(C)c2c(c(C)c1O)CC[C@](C)(C(=O)N1CCNCC1)O2` [SUL-150, (R)-(6-hydroxy-2,5,7,8-tetramethylchroman-2-yl)(piperazin-1-yl)methanone]: the “LPS-induced mitochondrial oxidative stress (MitoSox)” value in assay [1] is recorded as “precluded the LPS-induced increase in mitochondrial oxidative stress”. Also, the “reduction in cell viability versus normothermic control cells” value in [2] was around 15%. The “LPS-induced mRNA expression of TNFα” value in assay [3] is reported as “precludes the induction of mRNA expression of the pro-inflammatory cytokine TNFα”. The “LPS-induced mRNA expression of IL-6” value in assay [4] was “precluded the LPS-induced increase in IL-1β and IL-6”. Besides, the “inhibition of LPS-induced mRNA expression of TNFα” value in [5] was found to be 79.8 ± 4.1 %. Further, the “LPS-induced increase in extracellular nitrate level” value in assay [6] (10 μM pre-treatment, LPS 100 ng/ml for 24 hours) is “Neither SUL-138 nor SUL-150 strongly suppressed the LPS-induced increase in nitrate production”. Moreover, the “basal production of extracellular nitrate” value in assay [6] (no LPS, 10 μM) was “Neither BN-80933, SUL-138, nor SUL-150 affected the basal production of extracellular nitrate”. For the same compound, the “LPS-induced cytoplasmic oxidative stress (DHE)” value in assay [7] is listed as “mitigates the induction of cytoplasmic oxidative stress”. Further, in [8], the “inhibition of LPS-induced mRNA expression of IL-6” value is 69.3 ± 3.9 %. The “nitrate levels in the conditioned medium after LPS” value in assay [9] is “mitigated the LPS-induced reduction in nitrate levels and their levels did not change from basal nitrate level”. For the same compound, in assay [10], the “inhibition of LPS-induced mRNA expression of IL-1β” value turned out to be 78.9 ± 6.0 %. Further, the “LPS-induced mRNA expression of IL-1β” value in assay [11] is “precluded the LPS-induced increase in IL-1β and IL-6”.

For the compound `Cc1c(C)c2c(c(C)c1O)CC[C@@](C)(C(=O)N1CCNCC1)O2` [SUL-151, (S)-(6-hydroxy-2,5,7,8-tetramethylchroman-2-yl)(piperazin-1-yl)methanone], the Geotaxis entry in assay [12] (3 mM SUL-151, 24 hr and 48 hr after induction) was “improved both at 24 hr and 48 hr”. In addition, the “Survival after 24 hr” value in assay [12] (3 mM SUL-151 intrathoracic injection with the bacteria) came to 80%. Besides, the figures for the “inhibition of LPS-induced mRNA expression of IL-6” value in [13] and in [8] were 83.1 ± 8.3 % and 65.4 ± 4.6 %, respectively. The “inhibition of LPS-induced mRNA expression of TNFα” value in assay [5] came out at 72.5 ± 3.2 %; in assay [14], 72.1 ± 14.5 %. In addition, the “inhibition of LPS-induced mRNA expression of IL-1β” value in assay [10] is 76.7 ± 1.2 %.
